Results on two molecules are retold here after PMC11476552, “Synthesis and Preliminary Studies for In Vitro Biological Activity of Two New Water-Soluble Bis(thio)carbohydrazones and Their Copper(II) and Zinc(II) Complexes” (International Journal of Molecular Sciences, 2024).

Each structure is given as a SMILES string. Like-named read-outs stand apart in the source and are kept apart here.

The data set can be described thus: Proton dissociation constants by UV-visible spectrophotometry. The data set is classed as physicochemical. The settings on record: aqueous buffer solutions. The source says: The proton dissociation constants of Na2H4L^1·5.5 H2O (bis-TCH) were studied by registering the UV–visible spectra in aqueous solution between pH 3.98 and 10.00 (Figure 1A).
Between pH = 3.98 and 6.00, the solutions were colourless with absorption maxima at 237 and 320 nm. From pH = 6.49, the solution was pale green, and the colour became more intense until pH = 10.00; the colour change was accompanied by the appearance of bands at 253 and 393 nm, with a shoulder at 445 nm. […] This value is similar to that reported for the deprotonation of the phenolic moiety of sodium 5-sulfonate-salicylaldehyde thiosemicarbazones. The values of pKa1 and pKa2, associated with the proton dissociation of the sulfonic groups, are expected to have much lower values (below 3) and could not be determined from these experiments. Potentiometric titrations were performed in an attempt to determine the value of the pKa of the hydrazidic NH protons (pKa5 and pKa6) and, possibly, those of the protonated sulfonate groups. Effectively, potentiometric data allowed us to determine the pKa5 value, along with pKa3 and pKa4 (Table 2). The values of pKa3 and pKa4 obtained by potentiometry are consistent with those obtained by spectrophotometric titrations.
Similarly, the proton dissociation constants of bis-CH were studied spectrophotometrically in aqueous solution between pH = 3.98 and 10.00 (Figure 1B). […] The spectrophotometric data were processed by means of HypSpec2014 software, leading to pKa3 = 7.34(1) and pKa4 = 8.58(1), which were assigned to the deprotonation of the two phenolic OH groups (Table 2). As for bis-TCH, the single-site pKa value of the phenolic groups can be estimated as the average pKa (7.96). Additionally, to complete the analysis, we carried out potentiometric titrations of bis-CH starting from a very acidic pH. […] Importantly, no dissociation of the hydrazidic NH groups was observed, a behaviour consistent with that reported in the literature.
The UV–visible spectra were collected using a Thermo Scientific Evolution 260 Bio spectrophotometer equipped with a Peltier temperature controller. Aqueous buffer stock solutions (50 mM) were prepared as follows: acetate buffer solutions (pH = 3.98, 4.62, and 5.00) were prepared by mixing appropriate volumes of AcOH 50 mM and AcONa·3H2O 50 mM solutions. MES (pH = 5.51, 6.00, and 6.49), HEPES (pH = 7.00, 7.48, and 8.01) and CHES (pH = 8.62, 9.01, 9.51, and 10.00) buffer solutions were obtained by suspending appropriate amounts of solid MES/HEPES/CHES in water, adding aqueous NaOH 100 mM until the desired pH was reached. The pH was measured using a Crison Basic 20 pH meter connected with a Hamilton glass electrode. Calibration of the glass electrode was carried out daily. All solutions were prepared using double-distilled water. For all the solutions, the ionic strength was 0.1 M NaCl.
Samples used for the study of protonation equilibria of the ligands were prepared as follows. […] For each solution, the absorption spectrum was collected in the 220–600 nm range at 298.2 K. The spectral data collection was carried out immediately after the preparation of the samples and repeated after 3 and 10 min for all the samples at different pH values to check the stability of the ligand. […] The complex formation equilibria at pH 2.5 or 7.4 of bis-TCH and bis-CH with Cu(II) and Zn(II) ions were studied by direct spectrophotometric titrations of solutions of the ligands with the metal ions, and the samples were prepared as follows. Appropriate aliquots of the stock solutions of the ligands were diluted in a quartz cuvette of 1 cm path length using HEPES buffer (pH 7.4) or by adding HCl aqueous solution (pH 2.5) to obtain ca. 17 µM ligand solutions in a total volume of 2.6 mL. […]

Setting [1] is: UV-visible spectrophotometry, aqueous solution, T = 298.2 K, phenolic group, read-out: pKa3.
The mark [2] stands for this setting: UV-visible spectrophotometry, aqueous solution, T = 298.2 K, phenolic group, read-out: pKa4.
The mark [3] stands for this setting: average of spectrophotometric pKa3 and pKa4, read-out: single-site pKa value of the phenolic groups (average pKa).

As to `COc1cc(S(=O)(=O)[O-])cc(/C=N/NC(=S)N/N=C/c2cc(S(=O)(=O)[O-])cc(OC)c2O)c1O.[Na+].[Na+]` [bis-TCH, Bis-(sodium 3-methoxy-5-sulfonate-salicylaldehyde)-thiocarbohydrazone], the pKa under setting [1] worked out at 6.78, the pKa under setting [2] was found to be 8.77 and the pKa under setting [3] came out at 7.78.

As for `COc1cc(S(=O)(=O)[O-])cc(/C=N/NC(=O)N/N=C/c2cc(S(=O)(=O)[O-])cc(OC)c2O)c1O.[Na+].[Na+]` [bis-CH, Bis-(sodium 3-methoxy-5-sulfonate-salicylaldehyde)-carbohydrazone], the pKa reads like this: under setting [1], 7.34; under setting [2], 8.58; under setting [3], 7.96.
